In publication PMC10233829 (ACS Omega, 2023):
≈ marks a conversion by molar mass, not a printed value.

Columns and labels:
[1] = tested on: S. epidermidis ATCC 12228; assay: MIC, twofold microdilution, standard strain; assay type: cell-based; conditions: Staphylococcus epidermidis, ATCC12228, 18 h
[2] = MTT assay, cytotoxic activity; assay type: cell-based; conditions: human, HaCaT cells (immortal keratinocytes); MTT, 72 h, normal cell line; read-out: IC50 HaCaT
Summary of the method: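 MTT assay on cells grown at 37 °C/5% CO2. Viability is expressed as relative MTT reduction: test absorbance divided by untreated-control absorbance, ×100%.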

P. aeruginosa ATCC 15442 = assay: MIC, twofold microdilution, standard strain; assay type: cell-based, Pseudomonas aeruginosa; conditions: for MIC: Pseudomonas aeruginosa, ATCC15442, standard strain, 18 h
S. aureus ATCC 25923 = assay: MIC, twofold microdilution, standard strain; assay type: cell-based; conditions: Staphylococcus aureus, ATCC25923, 18 h
S. aureus 180 = assay: MIC, twofold microdilution, clinical strain; assay type: cell-based; conditions: Staphylococcus aureus, 18 h
P. aeruginosa 659 = assay: MIC, twofold microdilution, clinical strain; assay type: cell-based; conditions: Pseudomonas aeruginosa, 18 h
[3] = tested on: clinical bacterial strains; assay: MIC, clinical isolates as groups of strains; assay type: cell-based; conditions: for MIC: clinical strains, read-out: MIC against selected E. coli and E. cloacae strains
S. aureus T5591 = assay: MIC, twofold microdilution, clinical strain; assay type: cell-based, Staphylococcus aureus; conditions: for MIC S. aureus T5591: 18 h; for MIC: Staphylococcus aureus, T5591, 18 h
S. aureus ATCC 29213 = assay: MIC, twofold microdilution, standard strain; assay type: cell-based; conditions: Staphylococcus aureus, ATCC29213, 18 h
E. coli 951 = assay: MIC, twofold microdilution, clinical strain; assay type: cell-based; conditions: Escherichia coli, 18 h
[4] = tested on: S. epidermidis ATCC 35984; assay: MIC, twofold microdilution, standard strain; assay type: cell-based; conditions: Staphylococcus epidermidis, ATCC35984, 18 h
E. cloacae 8 = assay: MIC, twofold microdilution, clinical strain; assay type: cell-based, Escherichia cloacae; conditions: for MIC: Enterobacter cloacae, 8, clinical strain, 18 h
M. tuberculosis H37Rv = assay: Tuberculostatic activity, Microplate Alamar Blue Assay (MIC); assay type: cell-based, Mycobacterium tuberculosis; set-up: concentration with growth inhibition as good as RMP and SM or EMB: unit not given here; conditions: for MIC: Mycobacterium tuberculosis, H37RV, MABA, read-out: MIC M. tuberculosis H37Rv
E. coli 600 = assay: MIC, twofold microdilution, clinical strain; assay type: cell-based, Escherichia coli; conditions: Escherichia coli, 600, 18 h
P. aeruginosa 37 = assay: MIC, twofold microdilution, clinical strain; assay type: cell-based; conditions: Pseudomonas aeruginosa, 18 h
PC3 cells = assay: MTT assay, cytotoxic activity; assay type: cell-based, human; conditions: MTT, 72 h
Summary of the method: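 PC3 cells were grown at 37 °C/5% CO2 and exposed to test compounds. Viability came from MTT reduction, as test absorbance over untreated-control absorbance × 100%.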

S. pasteuri KR 4358 = assay: MIC, twofold microdilution, clinical strain; assay type: cell-based; conditions: Staphylococcus pasteuri, KR4358, 18 h
S. aureus 5595 = assay: MIC, twofold microdilution, clinical strain; assay type: cell-based; conditions: Staphylococcus aureus, 18 h
E. coli 520 = assay: MIC, twofold microdilution, clinical strain; assay type: cell-based; conditions: Escherichia coli, 18 h
S. aureus T5595 = assay: MIC, twofold microdilution, clinical strain; assay type: cell-based, Staphylococcus aureus; conditions: for MIC S. aureus T5595: 18 h; for MIC: Staphylococcus aureus, T5595, 18 h
S. epidermidis KR4243/1 = assay: MIC, twofold microdilution, clinical strain; assay type: cell-based; conditions: Staphylococcus epidermidis, 18 h
K. pneumoniae 28 = assay: MIC, twofold microdilution, clinical strain; assay type: cell-based; conditions: Klebsiella pneumoniae, 18 h
S. aureus NCTC 4163 = assay: MIC, twofold microdilution, standard strain; assay type: cell-based; conditions: Staphylococcus aureus, NCTC4163, 18 h
K. pneumoniae 510 = assay: MIC, twofold microdilution, clinical strain; assay type: cell-based, Klebsiella pneumoniae; conditions: for MIC: Klebsiella pneumoniae, 510, clinical strain, 18 h
S. epidermidis 5253 = assay: MIC, twofold microdilution, clinical strain; assay type: cell-based, Staphylococcus epidermidis; conditions: for MIC: Staphylococcus epidermidis, 5253, 18 h
S. aureus ATCC 6538 = assay: MIC, twofold microdilution, standard strain; assay type: cell-based, Staphylococcus aureus; conditions: for MIC: Staphylococcus aureus, ATCC6538, standard strain, 18 h
S. epidermidis 4341 = assay: MIC, twofold microdilution, clinical strain; assay type: cell-based; conditions: Staphylococcus epidermidis, 18 h
E. coli ATCC 25922 [5] = assay: MIC, twofold microdilution, standard strain; assay type: cell-based, Escherichia coli; conditions: for MIC: Escherichia coli, ATCC25922, standard strain, 18 h
[6] = tested on: M. tuberculosis Spec. 192; assay: Tuberculostatic activity, Microplate Alamar Blue Assay (MIC); assay type: cell-based; conditions: Mycobacterium tuberculosis, MABA, read-out: MIC M. tuberculosis Spec. 192 (sensitive to tuberculostatics)
E. coli ATCC 25922 [7] = assay: Bacterial growth curve assay (OD600, 18 h); assay type: cell-based, Escherichia coli; conditions: E. coli, 0.006 μg/mL

| SMILES | MIC [1] | IC50 at 72 h [2] | MIC (P. aeruginosa ATCC 15442) | MIC (S. aureus ATCC 25923) | MIC (S. aureus 180) | MIC (P. aeruginosa 659) | MIC (S. aureus T5591) | MIC (S. aureus ATCC 29213) | MIC (E. coli 951) | MIC [4] | MIC (E. cloacae 8) | MIC (M. tuberculosis H37Rv) | MIC (E. coli 600) | MIC (P. aeruginosa 37) | IC50 (PC3 cells; Homo sapiens, PC-3, 72 h) | MIC (S. pasteuri KR 4358) | MIC (S. aureus 5595) | MIC (E. coli 520) | MIC (S. aureus T5595) | MIC (S. epidermidis KR4243/1) | further results |
| --- | --- | --- | --- | --- | --- | --- | --- | --- | --- | --- | --- | --- | --- | --- | --- | --- | --- | --- | --- | --- | --- |
| O=C(O)c1cn(C2CC2)c2cc(N3CCN(C(=O)C4CC4)CC3)c(F)cc2c1=O [Compound 2, 7-(4-Cyclopropanecarbonyl-piperazin-1-yl)-1-cyclopropyl-6-fluoro-4-oxo-1,4-dihydro-quinoline-3-carboxylic Acid] | 0.1 µg/mL (≈ 0.25 µM) | 75.7 ± 7.5 µM | 0.8 µg/mL (≈ 2 µM) | 0.2 µg/mL (≈ 0.501 µM) | 0.4 µg/mL (≈ 1 µM) | 6.4 µg/mL (≈ 16 µM) | 0.1 to 0.2 µg/mL (≈ 0.25 to 0.501 µM) | 0.1 µg/mL (≈ 0.25 µM) | 6.4 µg/mL (≈ 16 µM) | 0.1 µg/mL (≈ 0.25 µM) | 0.05 µg/mL (≈ 0.125 µM) | 1 µg/mL (≈ 2.5 µM) | 0.2 µg/mL (≈ 0.501 µM) | 12.8 µg/mL (≈ 32 µM) | 85.2 ± 8.2 µM | 0.2 µg/mL (≈ 0.501 µM) | 0.4 µg/mL (≈ 1 µM) | 0.2 µg/mL (≈ 0.501 µM) | 0.1 to 0.2 µg/mL (≈ 0.25 to 0.501 µM) | 0.2 µg/mL (≈ 0.501 µM) | times more powerful than CP ([3]; S. aureus T5595 and T5591): 1.25–2.5 times; MIC [3]: 0.1 to 0.8 µg/mL (≈ 0.25 to 2 µM); MIC S. aureus T5591 (S. aureus T5591): 0.2 µg/mL (≈ 0.501 µM); MIC times lower than CP alone (E. cloacae 8; E. cloacae isolate): 1.2 times; concentration with growth inhibition as good as RMP and SM or EMB (M. tuberculosis H37Rv; M. tuberculosis H37Rv): 1–2; MIC S. aureus T5595 (S. aureus T5595): 0.2 µg/mL (≈ 0.501 µM); MIC (K. pneumoniae 28): > 25.6 µg/mL; MIC (S. aureus NCTC 4163): 0.1 µg/mL (≈ 0.25 µM); MIC (K. pneumoniae 510): 25.6 µg/mL (≈ 64.1 µM); MIC S. epidermidis 5253 (S. epidermidis 5253; 18 h): 25.6 µg/mL (≈ 64.1 µM); MIC (S. epidermidis 5253): 12.8 to 25.6 µg/mL (≈ 32 to 64.1 µM); MIC (S. aureus ATCC 6538): 0.1 µg/mL (≈ 0.25 µM); MIC (S. epidermidis 4341): 12.8 µg/mL (≈ 32 µM); MIC (E. coli ATCC 25922 [5]): 0.05 µg/mL (≈ 0.125 µM); MIC [6]: 0.5 µg/mL (≈ 1.25 µM) |
| O=C(O)c1cn(C2CC2)c2cc(N3CCN(C(=O)CCCCl)CC3)c(F)cc2c1=O [Compound 5, 7-[4-(4-Chlorobutyryl)-piperazin-1-yl]-1-cyclopropyl-6-fluoro-4-oxo-1,4-dihydro-quinoline-3-carboxylic Acid] | 0.4 µg/mL (≈ 0.918 µM) | > 100 µM | 0.2 µg/mL (≈ 0.459 µM) | 0.8 µg/mL (≈ 1.84 µM) | 0.4 µg/mL (≈ 0.918 µM) | 0.8 µg/mL (≈ 1.84 µM) | 0.4 µg/mL (≈ 0.918 µM) | 0.4 µg/mL (≈ 0.918 µM) | 0.8 µg/mL (≈ 1.84 µM) | 0.2 µg/mL (≈ 0.459 µM) | 0.05 µg/mL (≈ 0.115 µM) | 0.5 µg/mL (≈ 1.15 µM) | 0.025 µg/mL (≈ 0.0574 µM) | 0.8 µg/mL (≈ 1.84 µM) | 97.2 ± 11 µM | 0.2 µg/mL (≈ 0.459 µM) | 0.4 µg/mL (≈ 0.918 µM) | 0.025 µg/mL (≈ 0.0574 µM) | 0.4 µg/mL (≈ 0.918 µM) | 0.2 µg/mL (≈ 0.459 µM) | MIC used in biofilm eradication assay, P. aeruginosa 15442 (P. aeruginosa ATCC 15442; Table S1, MIC): 0.200 µg/mL (≈ 0.459 µM); share of the reference (CP) activity ([3]; S. aureus T5595 and T5591): 62.5%; MIC (K. pneumoniae 28): > 25.6 µg/mL; MIC (S. aureus NCTC 4163): 0.2 µg/mL (≈ 0.459 µM); share of the reference (CP) activity (K. pneumoniae 510; Klebsiella pneumoniae rods): 62.5%; MIC (K. pneumoniae 510): 6.4 µg/mL (≈ 14.7 µM); MIC (S. epidermidis 5253): > 25.6 µg/mL; lag phase elongated to (E. coli ATCC 25922 [7]): 6 h; MIC (S. aureus ATCC 6538): 0.2 µg/mL (≈ 0.459 µM); MIC used in biofilm eradication assay, S. aureus 6538 (S. aureus ATCC 6538; Table S1, MIC): 0.200 µg/mL (≈ 0.459 µM); MIC (S. epidermidis 4341): 12.8 µg/mL (≈ 29.4 µM); MIC (E. coli ATCC 25922 [5]): 0.025 µg/mL (≈ 0.0574 µM); MIC used in biofilm eradication assay, E. coli ATCC 25922 (E. coli ATCC 25922 [5]; Table S1, MIC): 0.025 µg/mL (≈ 0.0574 µM); MIC [6]: 0.5 µg/mL (≈ 1.15 µM) |
| O=C(O)c1cn(C2CC2)c2cc(N3CCN(C(=O)CCl)CC3)c(F)cc2c1=O [Compound 3, 7-[4-(2-Chloroacetyl)-piperazin-1-yl]-1-cyclopropyl-6-fluoro-4-oxo-1,4-dihydro-quinoline-3-carboxylic Acid] | 0.2 µg/mL (≈ 0.49 µM) | 35.7 ± 8.2 µM | 6.4 µg/mL (≈ 15.7 µM) | 0.2 µg/mL (≈ 0.49 µM) | 0.4 µg/mL (≈ 0.981 µM) | > 25.6 µg/mL | 0.1 to 0.2 µg/mL (≈ 0.245 to 0.49 µM) | 0.2 µg/mL (≈ 0.49 µM) | > 25.6 µg/mL | 0.1 µg/mL (≈ 0.245 µM) | 0.8 µg/mL (≈ 1.96 µM) | 4 µg/mL (≈ 9.81 µM) | 0.4 µg/mL (≈ 0.981 µM) | > 25.6 µg/mL | 2.02 to 4.8 µM | 0.2 µg/mL (≈ 0.49 µM) | 0.4 µg/mL (≈ 0.981 µM) | 0.4 µg/mL (≈ 0.981 µM) | 0.1 to 0.2 µg/mL (≈ 0.245 to 0.49 µM) | 0.2 µg/mL (≈ 0.49 µM) | times more powerful than CP ([3]; S. aureus T5595 and T5591): 1.25–2.5 times; MIC [3]: 0.1 to 0.8 µg/mL (≈ 0.245 to 1.96 µM); MIC S. aureus T5591 (S. aureus T5591): 0.1 µg/mL (≈ 0.245 µM); IC50 (PC3 cells): 2.02 ± 0.1 µM; MIC S. aureus T5595 (S. aureus T5595): 0.2 µg/mL (≈ 0.49 µM); MIC (K. pneumoniae 28): > 25.6 µg/mL; MIC (S. aureus NCTC 4163): 0.1 µg/mL (≈ 0.245 µM); MIC (K. pneumoniae 510): 25.6 µg/mL (≈ 62.8 µM); MIC (S. epidermidis 5253): > 25.6 µg/mL; MIC (S. aureus ATCC 6538): 0.2 µg/mL (≈ 0.49 µM); MIC (S. epidermidis 4341): 12.8 µg/mL (≈ 31.4 µM); MIC (E. coli ATCC 25922 [5]): 0.2 µg/mL (≈ 0.49 µM); MIC [6]: 2 µg/mL (≈ 4.9 µM) |
